Test results reported in patent publication US20040266805A1, “Inflammation modulatory compound” (priority 2001, published 2004).
“And” between values parts separate entries of the source, which are not always exact repeats. Equal entries are not always repeated.

Columns and labels:
[1] = tested on: Splenocytes and thymocytes; assay: Apoptosis by Annexin-V staining and flow cytometry; assay type: cell-based, rat; conditions: for Effect on apoptosis in cells following any of the culture periods: culture 6, 24, 48 or 72 h; for Effect on ConA-induced apoptosis in thymocytes: morphine 10^−8 to 10^−18 mol/l; for Effect on apoptosis in basal non-activated splenocytes and thymocytes: pre-incubation 1 h, basal apoptosis 4-8%
Procedure: Splenocytes and thymocytes obtained from adult male Wistar rats were cultured as previously described (10). Cells were incubated with EM-1, EM-2 or morphine at various concentrations for 1 h and were then activated with either Concanavalin A (ConA, 5 μg/ml, Sigma UK) or lipopolysaccharide (LPS, 25 μg/ml, Sigma, UK) and cultured for 6, 24, 48 or 72 h. After culture, cells were stained with Annexin-V-Fluos (Roche, Mannheim, Germany) and analysed by flow cytometry (Becton Dickinson, UK). Apoptosis in basal non-activated splenocytes and thymocytes was 4-8%, and pre-incubation with EM-1, EM-2 or morphine had no effect on this. ConA at 1 or 5 μg/ml induced 10-15 and 20-30% apoptosis respectively in rat splenocytes, values which were not altered by pre-incubation with EM-2 at concentrations of 10^−8 to 10^−18 mol/l. […] No effect of morphine, EM-1 or EM-2 was observed on apoptosis in cells following any of the culture periods.

[2] = tested on: rat Fas in splenocytes and thymocytes; assay: Fas expression by antibody staining and flow cytometry; assay type: cell-based; conditions: basal or ConA activated splenocytes and thymocytes, cultured 6 h
Procedure: Splenocytes and thymocytes, whether basal or ConA activated, were cultured for 6h in the presence of EM-1, EM-2 or morphine (concentration ranges as above) and were then stained with an antibody specific for rat Fas (Transduction Laboratories, Lexington, Ky., USA) and analysed by flow cytometry.

[3] = tested on: Adjuvant arthritis (AA) in adult male Lewis rats; assay: Intraperitoneal treatment of existing inflammation with endomorphin in adjuvant arthritis rats; assay type: in vivo, rat
Procedure: (§1) Adjuvant arthritis (AA) was induced in adult male Wistar rats by a single intradermal injection (0.1 ml) of a suspension of ground, heat-killed M. butyricum in paraffin oil (10 mg/ml) into the tail base (9). Rats were despatched 14 days following injection and spleens, thymuses and hind paws were collected on dry ice and stored at −80° C. Spleens, thymuses and synovial tissue from the paws were acid-extracted and the extracts were measured for the presence of EM-1 and EM-2 by RIAs (8). EM-1 contents in the spleen (p<0.05) and thymus (p<0.075) were elevated compared to tissues from non-AA controls (FIG. 4). […] Neither EM-1 or EM-2 were detectable in extracts of synovial tissues from control non-AA rats (FIG. 5).
Adjuvant arthritis (AA) was induced in adult male Lewis rats as above. Saline vehicle or 1 μmol of endomorphin in saline was given as an intraperitoneal (ip) injection on days 11, 12 and 13 after adjuvant injection, and after the onset of inflammation, to assess the modulation effect of the endomorphin.

[4] = tested on: Adjuvant arthritis (AA) in adult male Wistar rats; assay: Intraplantar treatment with endomorphin 1 prior to onset of inflammation in adjuvant arthritis rats; assay type: in vivo, rat; conditions: for Mean Paw Volume: days 9-13, day 14, vehicle 2.924
Procedure: as §1
(§2) Adjuvant arthritis (AA) was induced in adult male Wistar rats using the same protocol as described in Example 2 with saline vehicle or endomorphin 1 in saline being injected on days 9, 10, 11, 12 and 13 after adjuvant injection and prior to the onset of inflammation.

[5] = tested on: arthritic male Wistar rats; assay: Intraperitoneal administration of EM-1 prior to onset of inflammation in arthritic rats; assay type: in vivo, rat; parameters: Mean Paw Volume: unit not given beside the values; conditions: for Mean Paw Volume: n=7
Procedure: as §2
The protocol of Example 3 above was followed using intraperitoneal injection of 0.1 and 1.0 μmol Endomorphin-1 or vehicle in arthritic male Wistar rats prior to the onset of inflammation.
EM-1 or vehicle was administered on days 9, 10, 11, 12 and 13.

## CN1CC[C@]23c4c5ccc(O)c4O[C@H]2[C@@H](O)C=C[C@H]3[C@H]1C5 [morphine, reference compound]
[1]
  Effect on apoptosis in cells following any of the culture periods: No effect
  Effect on ConA-induced apoptosis in thymocytes: Neither EM-1, EM-2 nor morphine (concentration range of morphine 10^−8 to 10^−18 mol/l) had any effect
  Effect on apoptosis in basal non-activated splenocytes and thymocytes: had no effect
[2]
  Alteration in expression of Fas: No alteration

## endomorphin-1 [EM-1]
[1]
  Effect on apoptosis in cells following any of the culture periods: No effect
  Effect on ConA-induced apoptosis in thymocytes: Neither EM-1, EM-2 nor morphine (concentration range of morphine 10^−8 to 10^−18 mol/l) had any effect
  Effect on apoptosis in basal non-activated splenocytes and thymocytes: had no effect
[2]
  Alteration in expression of Fas: No alteration
[3]; dose of 1 μmol ip
  Effect on existing inflammation: reduce existing inflammation
[3]; individual rats, 1 μmol ip on days 11, 12 and 13 after adjuvant, after onset of inflammation, day 14, listed as Endomorphin (EM-1)
  Paw Volume: 3.15 ml and 3.04 ml and 2.57 ml (2×) and 2.41 ml and 2.81 ml and 2.35 ml and 2.61 ml
[3]; n=8, SEM=0.10, 1 μmol ip on days 11, 12 and 13, day 14, vehicle mean 2.96
  Paw Volume, mean: 2.69 mL
[4]; 10 pmol intraplantar, n=14
  Mean Paw Volume: 2.779 mL
[4]; 100 pmol intraplantar, n=14
  Mean Paw Volume: 2.381 mL
[4]; 1 nmol intraplantar, n=12
  Mean Paw Volume: 2.638 mL
[4]; 10 nmol intraplantar, n=14
  Mean Paw Volume: 2.260 mL
[4]; 100 fmol intraplantar, n=14
  Mean Paw Volume: 2.450 mL
[4]; intraplantar injection, 100 fmols
  Reduction of inflammation (decrease in paw volume compared to the vehicle group): ≤ 16%
[5]; 0.1 μmol ip group, Day 0 (before treatment on days 9-13)
  Mean Paw Volume: 1.613
[5]; 0.1 μmol ip on days 9-13, Day 14, vehicle 2.927
  Mean Paw Volume: 2.494
[5]; 1.0 μmol ip group, Day 0 (before treatment on days 9-13)
  Mean Paw Volume: 1.723
[5]; 1.0 μmol ip on days 9-13, Day 14, vehicle 2.927
  Mean Paw Volume: 2.349
[5]; 1 μmol ip, prophylactically
  Reduction in inflammation: 20%

## endomorphin-2 [EM-2]
[1]; ConA 1 or 5 μg/ml, pre-incubation at 10^−8 to 10^−18 mol/l
  Effect on ConA-induced apoptosis in rat splenocytes: not altered
[1]; LPS 5 and 25 μg/ml, 10-12% apoptosis
  Effect on LPS-induced apoptosis: did not alter
[1]
  Effect on apoptosis in cells following any of the culture periods: No effect
  Effect on ConA-induced apoptosis in thymocytes: Neither EM-1, EM-2 nor morphine (concentration range of morphine 10^−8 to 10^−18 mol/l) had any effect
  Effect on apoptosis in basal non-activated splenocytes and thymocytes: had no effect
[2]
  Alteration in expression of Fas: No alteration
